Reference: PubChem BioAssay (NCI)
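Growth conditions: 96-well plates. Treatment: test compound, 48 hours, 5 concentrations. Analysis: linear interpolation between bracketing concentrations; unreached endpoints set to highest concentration. GI50 marks 50% less growth. TGI: concentration producing complete growth inhibition.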 *1 amine or outer side, *2 acyl side, *3 side chain or, on linkers, in order; H or OH if unused. Where a SMILES comes first, the peptide text is derived from it. Bridges are numbered along the chain shown (N, C = ends). [ ]: non-standard residue; d: D form. The star is where a group is joined. ξ: configuration not given here. Phe(3,5-F2) = N[C@@H](Cc1cc(F)cc(F)c1)C(=O)O; ξThr(3S) = C[C@H](O[*:3])C(N[*:1])C(=O)[*:2]; X25 = C[C@H]1OCCN([*:1])[C@@H]1C(=O)[*:2]; Phe(3-F) = N[C@@H](Cc1cccc(F)c1)C(=O)O; Pro(4R-Me) = C[C@H]1CN[C@H](C(=O)O)C1; aThr = C[C@H](O)[C@H](N)C(=O)O; X24 = O=S(=O)(F)Oc1ccc(N*)cc1; Pip = O=C(O)[C@@H]1CCCCN1; X8 = CCc1ccc(N*)c(F)c1; CO = O=C([*:1])[*:2]

These molecules were tested on MDA-MB-468 breast (assay: inhibition of tumour cell growth, NCI panel, 48 h).

SMILES	GI50	TGI
C/C(=C/CCC(C)[C@@H]1CC[C@]2(C)C3=C(CC[C@@]12C)[C@@]1(C)CCC(=O)C(C)(C)[C@@H]1CC3)C(=O)O (some centres undefined)	1110 nM	2710 nM
CN(C)C1C(=O)C(C(N)=O)=C(O)C2(O)C(=O)C3=C(O)c4c(O)cccc4C(C)(O)C3CC12.[Cl][Sb]([Cl])[Cl] (centres undefined)	2500 nM	8830 nM
Cc1ccc2ccc3c4ccccc4ccc3c2c1	16100 nM	40400 nM
CN(C)CCNC(=O)Nc1ccc(N(C)c2ccnc(Nc3ccc(CS(C)(=O)=O)cc3)n2)cc1	> 13300 nM	> 25000 nM
O=c1[nH]c(=S)[nH]c(O)c1/C=C1\C=Nc2ccccc21	14400 nM	31100 nM
N#CN1CC[C@H](C(=O)Nc2ncc(-c3ccccc3)s2)C1	177 nM	423 nM
CC[n+]1c(-c2ccccc2)c2cc(N)ccc2c2ccc(N)cc21	160 nM	609 nM
CCN(CC)CCCC(Nc1c2ccc(Cl)cc2nc2ccc(OC)cc12)c1ccc(Cl)cc1 (centres undefined)	352 nM	1190 nM
NC(=O)c1nc(-c2c(F)cccc2Cl)oc1Nc1ccc(C(=O)N2CCOCC2)cc1	4330 nM	36700 nM
Cc1cc(NC(=O)NC(=O)c2ccccc2NC(=O)CN(C)C)ccc1Oc1ncc(Br)cn1	3620 nM	> 100000 nM
COc1cccc(-c2cc(=O)c3cc(N4CCN(C)CC4)ccc3[nH]2)c1	6030 nM	> 100000 nM
CO[C@H]1C(=O)[C@]2(C)[C@@H](OC)C[C@H]3OC[C@@]3(OC(C)=O)[C@H]2[C@H](OC(=O)c2ccccc2)[C@]2(O)C[C@H](OC(=O)[C@H](O)[C@@H](NC(=O)OC(C)(C)C)c3ccccc3)C(C)=C1C2(C)C	< 10 nM	419 nM
CCN1C(=O)N(CC)C2C1NC(=S)N2/N=C/C=C/c1ccccc1 (centres undefined)	54.6 nM	–
O=C(Nc1nc2ccc(S(=O)(=O)Nc3ccc(C4(C(F)(F)F)CC4)cc3)cc2[nH]1)c1cnccn1	515 nM	5740 nM
S=C(Sc1ccc(Cl)cc1)Sc1ccc(Cl)cc1	2300 nM	6900 nM
OCc1ccc(-c2ccc(-c3ccc(CO)o3)o2)o1	764 nM	3050 nM
O=c1[nH]c2ccccc2cc1-c1nnc(Cc2ccccc2)o1	2290 nM	9870 nM
Cn1cc(-c2ccc3ncc(-c4ccc(CC(=O)Nc5cc(C(C)(C)C)nn5C)cc4)cc3c2)cn1	799 nM	> 20000 nM
NC1=NC(c2ccccc2Cl)c2c(n[nH]c2N)N1 (centres undefined)	11100 nM	99600 nM
C[C@]12CCc3nc(Nc4ccc(O)cc4)sc3C1=CC[C@@H]1[C@@H]2CC[C@]2(C)/C(=N/NC(N)=S)CC[C@@H]12	1300 nM	3020 nM
O=C1Nc2ccc(-c3cccnc3)cc2/C1=C/c1cc(Br)c(O)c(Br)c1	6020 nM	16100 nM
C/C(=N/NC(N)=S)c1ccc(Nc2nc(SCC(C)C)nc(-c3ccc(F)cc3)c2C#N)cc1	1060 nM	7700 nM
COc1ccc([C@@]23Oc4cc(OC)cc(OC)c4[C@]2(O)[C@H](O)[C@H](C(=O)N(C)C)[C@H]3c2ccccc2)cc1	15.1 nM	141 nM

SMILES	GI50	TGI
COc1ccc(-c2cnc(-c3ccncc3-c3cccc(OC)c3)o2)cc1	178 nM	10400 nM
COc1cc([C@@H]2c3cc4c(cc3[C@H](SC(=N)N)[C@H]3COC(=O)[C@H]23)OCO4)cc(OC)c1OC	106 nM	2570 nM
CCOC(=O)[C@@H](C)C[C@H](Cc1ccccc1)NC(=O)c1csc([C@@H](C[C@H](C(C)C)N(C)C(=O)CNC(=O)[C@H]2CCCCN2C)OC(C)=O)n1	216 nM	736 nM
CCc1ccc(NC(=O)N[C@@H](Cc2cccc(F)c2)C(=O)N[C@@H]2C(=O)N3CCC[C@H]3C(=O)N3CCCC[C@H]3C(=O)N[C@@H](C)C(=O)N3C[C@H](C)C[C@H]3C(=O)O[C@H]2C)c(F)c1 ({X8-CO}-[Phe(3-F)][aThr]P[Pip]A[Pro(4R-Me)]; ester 2-C)	129 nM	799 nM
O=C(CI)NC(=O)NC(=O)NCc1ccccc1	2120 nM	4660 nM
Nc1ncnc2c1c(-c1ccc(Oc3ccccc3)cc1)nn2CC1SSCC1O (centres undefined)	801 nM	2020 nM
COc1cc(OC)c(S(N)(=O)=O)cc1C(=O)/C=C/c1ccc(C)cc1	1960 nM	7030 nM
O=C(NNc1nc2cc(F)ccc2n2c(CN3CCC(O)C3)ccc12)c1cnccn1 (centres undefined)	815 nM	7630 nM
CCc1ccc(Oc2c(-c3ccc(OCc4ccc(Cl)cc4)cc3O)nn(C)c2C(F)(F)F)cc1	337 nM	1620 nM
COC(=O)c1ccc(NC(N)=NCCC(C)(C)c2ccc(C(F)(F)F)cc2)nc1	1100 nM	2790 nM
Cc1ccccc1Nc1cc(O)c2c(=O)cc(-c3ccccc3)oc2c1	379 nM	3030 nM
N#Cc1cc(F)cc(Oc2ccc(S(=O)(=O)C(F)F)c3c2CC(F)(F)[C@H]3O)c1	16600 nM	66900 nM
O=C(Nc1ccc(-n2cc(-c3ccncc3)c(-c3ccc(Cl)c(O)c3)n2)cc1)c1cc(C(F)(F)F)cc(C(F)(F)F)c1	2160 nM	7600 nM
Cc1ccc(C(=O)Nc2ccc(Oc3cc4cnn(C)c4cc3-c3cn[nH]c3)c(F)c2)c(=O)n1-c1ccc(F)cc1	3200 nM	> 100000 nM
Nc1c(C(=O)Nc2ccccc2)sc2nc3c(cc12)C(=O)CCC3	161 nM	611 nM
C#COc1cccc(Nc2ncnc3cc(NC(=O)[C@@H](C)Cl)ccc23)c1	13500 nM	50800 nM
COC(=O)[C@]12CC[C@@H](C)[C@H](C)[C@@H]1C1=CC[C@@H]3[C@@]4(C)C(C=O)=C[C@@](C)(COS(C)(=O)=O)C4=CC[C@@]3(C)[C@]1(C)CC2	247 nM	752 nM
O=C(Nc1ccc(-n2cc(-c3ccncc3)c(-c3ccc(O)c(Cl)c3)n2)cc1)Nc1cc(C(F)(F)F)cc(C(F)(F)F)c1	3280 nM	13200 nM
CN(C)CCCOc1ccc(NC2=C(Cl)C(=O)C(Nc3ccc(OCCCN(C)C)cc3)=C(Cl)C2=O)cc1	360 nM	1260 nM
CCOC(=O)c1cc(C(=O)c2ccc(OC)c(OC)c2)n2c1ccc1ccc3cccnc3c12	2830 nM	> 100000 nM
CC(=O)Nc1cccc(C#Cc2cncnc2Nc2ccc(OCc3cccc(F)c3)c(Cl)c2)c1	1140 nM	5670 nM
C[C@@H]1C[C@H]2C(=O)O[C@@H](C)C(NC(=O)[C@H](Cc3cc(F)cc(F)c3)NC(=O)Nc3ccc(OS(=O)(=O)F)cc3)C(=O)N3CCC[C@H]3C(=O)N3CCO[C@H](C)[C@H]3C(=O)N[C@@H](CO)C(=O)N2C1 (stereo partly drawn) ({X24-CO}-[Phe(3,5-F2)][ξThr(3S)]P[X25]S[Pro(4R-Me)]; ester 2-C)	416 nM	5810 nM
